# From US12209079B2 (GENERAL INCORPORATED ASSOCIATION PHARMA VALLEY PROJECT …, priority 2017, dated 2025)
# Key:
# Type in all cases: in vivo, mouse
# [1] = system: subcutaneous CT-26WT syngeneic graft of large intestine cancer; experiment: Drug efficacy test, combined use with anti-PD-1 antibody, mice with subcutaneous CT-26WT syngeneic graft (Test Example 2); conditions: 40 mg/kg oral twice a day, combined with anti-PD-1 antibody 200 μg/individual i.p.; Balb/c mice; FIG. 1
# Description: Drug Efficacy Test on Combined Use of IDO/TDO Inhibitor and Anti-PD-1 Antibody Using Mice with Subcutaneous CT-26WT Syngeneic Graft of Large Intestine Cancer
# 5×10^5 cells of syngeneic large intestine cancer cell line CT26WT were subcutaneously transplanted to each of 6-week-old female Balb/c mice. The mice were divided into 6 groups each involving 6 to 8 individuals 11 days later when the average tumor size was 212 mm^3. The oral administration (solvent for oral administration and 40 mg/kg each of epacadostat and compound 1 were administered twice a day at a 5-hour interval from days 1 to 5, days 8 to 12, and days 15 to 19) and intraperitoneal administration (PBS and 200 μg/individual of an anti-PD1 antibody were administered once a day on days 1, 4, 8, 11, 15, and 18) of each agent were started. Then, the major axis and minor axis of subcutaneous tumor were measured three times a week using calipers, and a mean and standard error of the mean of the calculated volumes in each group were plotted. The calculation expression was Volume (mm^3)=[Width^2 (mm^2)×Length (mm)]/2. The oral administration agent was dissolved in a solvent for oral administration of DMSO:PEG400:PBS=5:20:75. […]
# [2] = system: subcutaneous CT-26CL25 syngeneic graft of large intestine cancer; experiment: Drug efficacy test, combined use of compound 1 and oxaliplatin, mice with subcutaneous CT-26CL25 syngeneic graft (Test Example 3); conditions: 40 mg/kg oral twice a day, combined with oxaliplatin 10 mg/kg i.v.; Balb/c mice; FIG. 2
# Description: Drug Efficacy Test on Combined Use of Compound 1 and Oxaliplatin Using Mice with Subcutaneous CT-26CL25 Syngeneic Graft of Large Intestine Cancer
# 5×10^5 cells of syngeneic large intestine cancer cell line CT26CL25 were subcutaneously transplanted to each of 8-week-old female Balb/c mice. The mice were divided into 4 groups each involving 8 individuals 10 days later when the average tumor size was 185 mm^3. The oral administration (solvent for oral administration and 40 mg/kg compound 1 were administered twice a day at a 5-hour interval from days 1 to 5 and days 8 to 12) and intravenous administration (5% glucose solution and 10 mg/kg oxaliplatin were administered once a day on days 1 and 8) of each agent were started. Then, the major axis and minor axis of subcutaneous tumor were measured three times a week using calipers, and a mean and standard error of the mean of the ratios of the calculated volumes to the volumes at the administration start day in each group were plotted. The calculation expression was Volume (mm^3)=[Width^2 (mm^2)×Length (mm)]/2. Compound 1 was dissolved in a solvent for oral administration of DMSO:PEG400:PBS=5:20:75.
# ∘: the solvent for oral administration and the 5% glucose solution, •: the solvent for oral administration and oxaliplatin, Δ: compound 1 and the 5% glucose solution, and ▴: compound 1 and oxaliplatin.
# [3] = system: subcutaneous CT-26WT syngeneic graft of large intestine cancer; experiment: Drug efficacy test, combined use of compound 29 or 38 and anti-PD1 antibody, mice with subcutaneous CT-26WT syngeneic graft (Test Example 6); conditions: 40 mg/kg oral twice a day, combined with anti-PD1 antibody 200 μg/individual i.p.; Balb/c mice; FIG. 5
# Description: Drug Efficacy Test on Combined Use of Compound 29 or 38 and Anti-PD1 Antibody Using Mice with Subcutaneous CT-26WT Syngeneic Graft of Large Intestine Cancer
# 5×10^5 cells of syngeneic large intestine cancer cell line CT26WT were subcutaneously transplanted to each of 6-week-old female Balb/c mice. The mice were divided into 6 groups each involving 6 individuals 10 days later when the average tumor size was 250 mm^3. The oral administration (solvent for oral administration and 40 mg/kg each of compounds 29 and 38 were administered twice a day at a 5-hour interval from days 1 to 5 and days 8 to 12) and intraperitoneal administration (PBS and 200 μg/individual of an anti-PD1 antibody were administered once a day on days 1 and 8) of each agent were started. Then, the major axis and minor axis of subcutaneous tumor were measured three times a week using calipers, and a mean and standard error of the mean of the calculated volumes in each group were plotted. The calculation expression was Volume (mm^3)=[[…]×Length (mm)]/2. Compound 29 or 38 was suspended in 0.5% methyl cellulose as a solvent for oral administration. […]
# [4] = system: subcutaneous CT-26WT syngeneic graft of large intestine cancer; experiment: Drug efficacy test, combined use of compound 103 and anti-PD1 antibody, mice with subcutaneous CT-26WT syngeneic graft (Test Example 7); conditions: 40 mg/kg oral twice a day, combined with anti-PD1 antibody 200 μg/individual i.p.; Balb/c mice; FIG. 6
# Description: Drug Efficacy Test on Combined Use of Compound 103 and Anti-PD1 Antibody Using Mice with Subcutaneous CT-26WT Syngeneic Graft of Large Intestine Cancer
# 5×10^5 cells of syngeneic large intestine cancer cell line CT26WT were subcutaneously transplanted to each of 6-week-old female Balb/c mice. The mice were divided into 3 groups each involving 8 individuals 10 days later when the average tumor size was 176 mm^3. The oral administration (40 mg/kg of compound 103 was administered twice a day at a 5-hour interval from days 1 to 5 and days 8 to 12), intravenous administration (5% glucose solution was administered once a day on days 1 and 8) and intraperitoneal administration (PBS and 200 μg/individual of an anti-PD1 antibody were administered once a day on days 1 and 8) of each agent were started. Then, the major axis and minor axis of subcutaneous tumor were measured three times a week using calipers, and a mean and standard error of the mean of the calculated volumes in each group were plotted. The calculation expression was Volume (mm^3)=[Width^2 (mm^2)×Length (mm)]/2. Compound 103 was suspended in 0.5% methyl cellulose.
# • with the solid line: the 5% glucose solution and PBS, X with the dotted line: the 5% glucose solution and the anti-PD1 antibody, and ∘ with the solid line: compound 103 and the anti-PD1 antibody.
smiles,measurement,setting,value
"Cl.Cl.N=C(N)SCc1ccccc1CSC(=N)N [Compound 1, 1,2-phenylenebis(methylene) dicarbamimidothioate dihydrochloride]",tumor growth (tumor volume),[1],can suppress tumor growth
same,tumor growth (ratio of tumor volume to start day),[2],can suppress tumor growth
"c1ccc(CSC2=NCN(CC3CCCCC3)CN2)c(CSC2=NCN(CC3CCCCC3)CN2)c1 [Compound 29, 1,2-bis(((5-(cyclohexylmethyl)-1,4,5,6-tetrahydro-1,3,5-triazin-2-yl)thio)methyl)benzene]",tumor growth (tumor volume),[3],can suppress tumor growth
"Br.N#Cc1ccc(CNC(=O)c2cc(Br)ccc2CSC(=N)N)cc1 [Compound 103, 4-Bromo-2-((4-cyanobenzyl)carbamoyl)benzyl carbamimidothioate hydrobromide]",tumor growth (tumor volume),[4],can suppress tumor growth
